Usually IC50 stands for the concentration that inhibits the measured activity by half.

The test concerns the target T1, human α4β7 integrin (Homo sapiens, UniProt P13612+P26010).
T1 construct: expressed in transfected cells; host or cells: K562 cells, stably transfected
T1 sequence (P13612 34-1032): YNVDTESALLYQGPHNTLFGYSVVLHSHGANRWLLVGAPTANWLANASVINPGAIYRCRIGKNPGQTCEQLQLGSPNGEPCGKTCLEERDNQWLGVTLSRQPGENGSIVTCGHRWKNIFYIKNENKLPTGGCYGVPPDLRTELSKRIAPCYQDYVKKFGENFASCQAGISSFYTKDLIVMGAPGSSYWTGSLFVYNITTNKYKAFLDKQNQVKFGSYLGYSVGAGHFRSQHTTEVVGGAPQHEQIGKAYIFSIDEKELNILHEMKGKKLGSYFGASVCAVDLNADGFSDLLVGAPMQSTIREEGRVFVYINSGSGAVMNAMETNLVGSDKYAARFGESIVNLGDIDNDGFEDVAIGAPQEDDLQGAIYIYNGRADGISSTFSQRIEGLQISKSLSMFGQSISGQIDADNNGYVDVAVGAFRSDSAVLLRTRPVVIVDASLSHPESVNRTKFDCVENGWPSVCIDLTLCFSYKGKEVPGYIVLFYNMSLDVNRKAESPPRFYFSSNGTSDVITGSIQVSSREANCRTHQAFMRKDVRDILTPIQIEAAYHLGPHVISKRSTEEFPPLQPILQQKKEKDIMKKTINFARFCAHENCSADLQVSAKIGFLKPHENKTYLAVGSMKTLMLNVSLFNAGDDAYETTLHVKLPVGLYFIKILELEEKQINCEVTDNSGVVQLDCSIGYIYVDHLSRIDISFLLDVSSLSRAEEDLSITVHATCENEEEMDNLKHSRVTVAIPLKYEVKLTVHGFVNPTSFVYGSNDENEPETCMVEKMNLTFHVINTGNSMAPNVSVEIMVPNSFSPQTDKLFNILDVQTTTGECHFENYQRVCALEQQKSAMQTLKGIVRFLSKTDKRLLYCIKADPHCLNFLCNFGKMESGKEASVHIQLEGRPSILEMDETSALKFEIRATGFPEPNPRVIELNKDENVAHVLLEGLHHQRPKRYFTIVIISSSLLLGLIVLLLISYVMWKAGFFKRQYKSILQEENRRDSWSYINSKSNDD
T1 sequence (P26010 20-798): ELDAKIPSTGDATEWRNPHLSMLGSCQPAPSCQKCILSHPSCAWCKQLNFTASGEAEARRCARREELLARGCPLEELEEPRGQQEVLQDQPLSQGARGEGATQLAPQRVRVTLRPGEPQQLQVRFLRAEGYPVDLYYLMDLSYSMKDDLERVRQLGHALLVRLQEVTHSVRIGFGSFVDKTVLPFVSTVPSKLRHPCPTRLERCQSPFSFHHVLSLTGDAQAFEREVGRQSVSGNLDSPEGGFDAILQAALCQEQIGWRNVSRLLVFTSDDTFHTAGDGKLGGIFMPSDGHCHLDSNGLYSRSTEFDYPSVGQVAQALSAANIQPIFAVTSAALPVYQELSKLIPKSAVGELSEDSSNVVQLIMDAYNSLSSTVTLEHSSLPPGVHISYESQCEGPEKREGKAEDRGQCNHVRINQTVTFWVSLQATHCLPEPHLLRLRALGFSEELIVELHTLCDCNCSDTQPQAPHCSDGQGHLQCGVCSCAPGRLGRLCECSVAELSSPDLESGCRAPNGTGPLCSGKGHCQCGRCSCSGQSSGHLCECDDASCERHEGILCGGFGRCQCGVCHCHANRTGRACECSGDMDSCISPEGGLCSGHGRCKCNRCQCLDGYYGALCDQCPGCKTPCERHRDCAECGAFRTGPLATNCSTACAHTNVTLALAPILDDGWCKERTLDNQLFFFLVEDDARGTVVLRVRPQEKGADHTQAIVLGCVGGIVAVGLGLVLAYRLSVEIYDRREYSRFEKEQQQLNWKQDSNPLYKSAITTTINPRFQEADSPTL
Description: α4β7-K562 Cell Adhesion Assay (α4β7 Mediated Adhesion/MAdCAM-1). The class given is cell-based. The following applies: α4β7-K562 cell adhesion to hMAdCAM-1; read-out: α4β7 IC50. Put shortly: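 Anti-FLAG plates coated 1 h at 4° C with FLAG-hMAdCAM-1 in PBS pH 7.4, 1% BSA, 1 mM Mn2+. Stably transfected K562 cells expressing human α4β7, labelled with CFDA-SE, adhered with compound 1 h at room temperature. After four washes, bound cells lysed in 0.1 M NaOH for fluorescence read-out.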

On to `COc1cnn(CC(N)=O)c(=O)c1-c1ccc(C[C@H](NC(=O)c2c(Cl)cccc2Cl)C(=O)O)cc1` [Cpd 5], for which the IC50 amounted to 1 nM. For `COc1cnn(CCN2CCOCC2)c(=O)c1-c1ccc(C[C@H](NC(=O)c2c(Cl)cccc2Cl)C(=O)O)cc1` [Cpd 10] the value was 2 nM. As for `COc1cnn(CC(=O)O)c(=O)c1-c1ccc(C[C@H](NC(=O)c2c(Cl)cccc2Cl)C(=O)O)cc1` [Cpd 11], the concentration for half-maximal inhibition (IC50) came to 2 nM.

As for `COc1cnn(CCO)c(=O)c1-c1ccc(C[C@H](NC(=O)c2c(Cl)cccc2Cl)C(=O)O)cc1` [Cpd 15, (S)-2-(2,6-Dichloro-benzoylamino)-3{4-[2-(2-hydroxy-ethyl)-5-methoxy-3-oxo-2,3-dihydro-pyridazin-4-yl]-phenyl}-propionic acid], the half-maximal inhibitory concentration (IC50) amounted to 2 nM.

In the case of `CNc1cnn(CC(C)=O)c(=O)c1-c1ccc(C[C@H](NC(=O)c2c(Cl)cccc2Cl)C(=O)O)cc1` [Cpd 18], the IC50 was determined as 3 nM. The result for `O=C(N[C@@H](Cc1ccc(-c2c(OCc3cccnc3)cnn(CCO)c2=O)cc1)C(=O)O)c1c(Cl)cccc1Cl` [Cpd 30] reads 6 nM; that for `O=C(N[C@@H](Cc1ccc(-c2c(OCC3CC3)cnn(CCO)c2=O)cc1)C(=O)O)c1c(Cl)cccc1Cl` [Cpd 35], 8 nM. `Cn1ncc(N)c(-c2ccc(C[C@H](NC(=O)c3c(Cl)cccc3Cl)C(=O)O)cc2)c1=O` [Cpd 46]: the IC50 was 13 nM. The result for `O=C(N[C@@H](Cc1ccc(-c2c(N3CCOCC3)cnn(CCO)c2=O)cc1)C(=O)O)c1c(Cl)cccc1Cl` [Cpd 61] reads 20 nM; that for `COc1cnn(C)c(=O)c1-c1ccc(C[C@H](NC(=O)[C@@H]2C3CCC(CC3)N2C(=O)CCc2ccccc2)C(=O)O)cc1` [Cpd 89, 3-[4-(5-Methoxy-2-methyl-3-oxo-2,3-dihydro-pyridazin-4-yl)-phenyl]-2(S)-{[2-(3-phenyl-propionyl)-2-aza-bicyclo[2.2.2]octane-3(S)-carbonyl]-amino}-propionic acid], 47 nM; that for `COc1cnn(CCO)c(=O)c1-c1ccc(C[C@H](NC(=O)OC(C)(C)C)C(=O)O)cc1` [Cpd 120], 113 nM. The result for `COC(=O)[C@H](Cc1ccc(-c2c(OC)cnn(C)c2=O)cc1)NC(=O)c1c(Cl)cccc1Cl` [Cpd 151] reads 274 nM; that for `COc1cnn(CCO)c(=O)c1-c1ccc(C[C@H](NC(=O)c2c(Cl)cccc2Cl)C(=O)OCCO)cc1` [Cpd 199], 1370 nM; that for `COc1cnn(C)c(=O)c1-c1ccc(C[C@H](NC(=O)c2c(Cl)cccc2Cl)C(=O)OCC(C)(C)C)cc1` [Cpd 207], 2690 nM. The result for `Cn1ncc(N)c(-c2ccc(C[C@H](NC(=O)c3c(Cl)cccc3Cl)C(=O)OCCO)cc2)c1=O` [Cpd 232] reads greater than 5000 nM.

The record behind these values is US20050192279A1, “Pyridazinones as antagonists of alpha4 integrins” (priority 2004, published 2005).
